The results in this text go back to PMC11413682 (Acta Pharmaceutica Sinica. B, 2024).

Read-outs that look alike come from different tables or passages of the source. No end group written: not given here.

The target of this test is T1, CUL2^ZYG11B (residues 490–728) (Homo sapiens, UniProt Q9C0D3).
T1 construct: PCR was used to amplify CUL2^ZYG11B (residues 490–728); 6×His-SUMO (TEV-cleavable) (N, cleaved yes); made in house; host or cells: E. coli
The test is described as follows: ITC binding of ORF10 NTE synthetic peptides to CUL2^ZYG11B.

The mark [1] stands for this setting: figure panels, […], repeated 3 times, read-out: Kd.

T1 sequence (Q9C0D3 490-728): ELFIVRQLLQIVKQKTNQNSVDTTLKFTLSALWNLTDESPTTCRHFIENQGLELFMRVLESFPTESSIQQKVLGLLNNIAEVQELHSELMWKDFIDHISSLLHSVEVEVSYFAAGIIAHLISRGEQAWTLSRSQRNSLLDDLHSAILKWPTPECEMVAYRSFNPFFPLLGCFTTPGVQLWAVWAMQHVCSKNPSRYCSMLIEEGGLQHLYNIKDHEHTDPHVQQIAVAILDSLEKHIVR

As to AYINV [SARS-2 ORF10 N5-G1A], the dissociation constant Kd – broadly, the concentration at which binding is half-saturated – is 12.4 µM.
GFINV [SARS-2 ORF10 N5-Y2F]: the dissociation constant Kd under setting [1] came out at 4.73 µM.
Still for that read-out and setting: for GYANV [SARS-2 ORF10 N5-I3A] the value was 5.61 µM.
Same read-out and setting: under GYFNV [SARS-2 ORF10 N5-I3F] stands 0.87 µM; under GYIAV [SARS-2 ORF10 N5-N4A], 0.59 µM.
Consider “PYINV [SARS-2 ORF10 N5-G1P, altered peptide derived from SARS-CoV-2 ORF10 N5, G1P]”, for which the “binding to CUL2^ZYG11B (in words)” value (ITC) is given as “abolished”.
